For 17 molecules, EC50 results are on record in patent US20230295201A1 (Gilead Sciences, Inc., priority 2020, published 2023).

Each structure is given as a SMILES string. Read-outs that look alike come from different tables or passages of the source. A value given as a limit tells only on which side of the number the result lay.

Type in all cases: cell-based
Assay [1] concerns RSV strain A2. Kind of assay: RSV HEp-2 EC50 (infectious cytopathic cell protection assay). To be noted: HEp-2 cells, RSV A2, 4 days, read-out: RSV HEp-2 EC50. The procedure, abridged:
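Percent inhibition of RSV-induced cytopathic effect came from remaining cell viability (CellTiter-Glo luminescence) after 4 days at 37° C. Compounds in 3-fold serial dilutions were exposed to an infectious mix of titered A2 virus and HEp-2 cells at 50,000/ml, with 0% and 100% inhibition control standards.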
A general note: Damage to the host cells serves as the signal in cytopathic effect assays.

Assay [2] concerns DENV2 replicon. Kind of assay: DENV-2 Huh-7 Rep EC50 (replicon luminescence). To be noted: read-out: DENV-2 Huh-7 Rep EC50. The procedure, abridged: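 EC50 derived from luminescence dose-response, normalised to DMSO-only 0% inhibition wells, after 1.5 h with EnduRen substrate. Compounds were first exposed for 48 h at 37° C to DENV2 replicon Huh-7 cells (5,000/well).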
On the technique in general: In antiviral work, replicon cells carry a viral genome segment that copies itself.

The subject of assay [3] is Dengue serotype 2 New Guinea C (NGC) strain. Kind of assay: DENV-2 Huh-7 EC50 (qPCR in Huh7 cells). The procedure: Huh7 (Human hepatocarcinoma 7) cells were maintained in 10% FCS-containing DMEM complete media. On the day of the assay, cells were trypsinized (0.1% Trypsin-EDTA), washed and infected for 2 hours in serum-free DMEM with Dengue serotype 2 New Guinea C (NGC) strain at MOI=0.1 with gentle agitation at 37° C. After 2 hours, cells were washed with serum-free media and suspended in 10% FCS-containing DMEM (Gibco, supplemented with sodium pyruvate, NEAA, Penicillin-Streptomycin). 10^5 cells were plated in triplicate in 96-well plates with compounds dispensed at graded doses (Hewlett-Packard D300 Digital Dispenser). All wells were normalized to 0.25% DMSO. At 48 hours, cells were washed with 1×PBS and all supernatants removed. Total RNA was extracted using RNEasy 96 plates (Qiagen) and used to generate first-strand cDNA using XLT cDNA 5×Supermix (QuantaBio). cDNA was used as a template in a Taqman qPCR duplex reaction specific to DENV2 viral and GAPDH gene expression. EC50 values were determined using Prism Graphpad software, with normalization to a positive control and no compound negative control wells.
(In general: Quantitative PCR measures a nucleic acid by following its amplification.)

Assay [4] deals with RSV A2. Put plainly: RSV NHBE EC50 (RSV A2 antiviral assay in normal human bronchial epithelial cells). To be noted: NHBE cells, RSV A2, 4 days, read-out: RSV NHBE EC50.
Assay [5] deals with HRV16. Put plainly: HRV16 HELA EC50 (cytopathic effect in H1-HeLa cells). The procedure, abridged: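 Read-out is luminescent cell viability (CellTiter-Glo) after 96 h of infection at 33 °C, scaled between uninfected and infected-untreated wells. Before infection with titrated virus, compounds went onto H1-HeLa cells as triplicate 3-fold dilution series.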
The mark [6] stands for this setting: human respiratory syncytial virus, HEp-2, 96 h.
Setting [7] is: Dengue virus, DENV2, Huh-7, 48 h, Huh-7 replicon cells, 48 hours.
[8] abbreviates: Dengue virus, DENV2, Huh-7, 48 h.
Where [9] appears, read: human respiratory syncytial virus, NHBE, 96 h.
Setting [10] is: 96 h, H1-HeLa cells, 33° C., read-out: HRV16 HELA EC50.
[11] abbreviates: H1-HeLa cells, 96 h, 33° C.; read-out: HRV16 HELA EC50.
Where [12] appears, read: human respiratory syncytial virus, 96 h.

As for `C[C@H](NP(=O)(OC[C@@]1(C#N)O[C@@H](c2ccc3c(N)ncnn23)[C@H](O)[C@@H]1O)Oc1ccccc1)C(=O)OCC(C)(C)C(F)(F)F` (stereo partly drawn) [Example 260, 3,3,3-trifluoro-2,2-dimethylpropyl ((((2R,3S,4R,5S)-5-(4-aminopyrrolo[2,1-f][1,2,4]triazin-7-yl)-2-cyano-3,4-dihydroxytetrahydrofuran-2-yl)methoxy)(phenoxy)phosphoryl)-L-alaninate], the EC50 in assay [1] (setting [6]) stood at 0.066 µM; in assay [2] (setting [7]), 9.95 µM; in assay [3] (setting [8]), 0.682 µM.
For the molecule `CCCCCCCCOC(=O)[C@H](C)NP(=O)(OC[C@@]1(C#N)O[C@@H](c2ccc3c(N)ncnn23)[C@H](O)[C@@H]1O)Oc1ccccc1` (stereo partly drawn) [Example 188, octyl ((((2R,3S,4R,5S)-5-(4-aminopyrrolo[2,1-f][1,2,4]triazin-7-yl)-2-cyano-3,4-dihydroxytetrahydrofuran-2-yl)methoxy)(phenoxy)phosphoryl)-L-alaninate], the EC50 in assay [1] (setting [6]) is 0.186 µM; in assay [4] (setting [9]) it was 0.038 µM; in assay [5] (setting [10]), 0.429 µM; in assay [2] (setting [7]), 21.4 µM; in assay [3] (setting [8]) it was 3.02 µM.
In the case of `C[C@H](N[P@@](=O)(OC[C@@]1(C#N)O[C@@H](c2ccc3c(N)ncnn23)[C@H](O)[C@@H]1O)Oc1ccccc1)C(=O)OCC1CCC1` [Example 119], the concentration giving a half-maximal response (EC50) in assay [1] came out at 0.539 µM; in assay [4], 0.12 µM; in assay [5] (setting [11]), 0.247 µM; in assay [2] (Huh-7 replicon cells, 48 hours), 31.1 µM; in assay [3] (48 hours), 4.28 µM.
For the molecule `CCOC(=O)[C@H](C)NP(=O)(OC[C@@]1(C#N)O[C@@H](c2ccc3c(N)ncnn23)[C@H](O)[C@@H]1O)Oc1ccc(C(C)(C)C)cc1` (single isomer, unassigned) [Example 265], the EC50 in assay [1] is 0.215 µM; in assay [3] (setting [8]), 0.39 µM.
In the case of `CC(NP(=O)(OCC1(C#N)OC(c2ccc3c(N)ncnn23)C(O)C1O)Oc1ccccc1)C(=O)OCC1CCC(C(F)(F)F)CC1` (single isomer, unassigned) [Example 27], the EC50 in assay [1] was 1.3 µM; in assay [4], 0.018 µM; in assay [5] (setting [11]), 3.16 µM; in assay [2] (Huh-7 replicon cells, 48 hours) it was 82.2 µM; in assay [3] (48 hours) it was 5.68 µM.
Turning to `COCCCOC(=O)[C@H](C)NP(=O)(OC[C@@]1(C#N)O[C@@H](c2ccc3c(N)ncnn23)[C@H](O)[C@@H]1O)Oc1ccccc1` (single isomer, unassigned) [Example 59], the EC50 in assay [4] amounted to 0.111 µM; in assay [2] (Huh-7 replicon cells, 48 hours), 56.5 µM; in assay [3] (48 hours), 4.65 µM.
Consider `CCOC(=O)[C@H](C)NP(=O)(OC[C@@]1(C#N)O[C@@H](c2ccc3c(N)ncnn23)[C@H](O)[C@@H]1O)Oc1ccc(C(C)(C)C)cc1` (mixture of isomers) [Example 263, Ethyl ((((2R,3S,4R,5S)-5-(4-aminopyrrolo[2,1-f][1,2,4]triazin-7-yl)-2-cyano-3,4-dihydroxytetrahydrofuran-2-yl)methoxy)(4-(tert-butyl)phenoxy)phosphoryl)-L-alaninate], for which the EC50 came out at 0.035 µM in assay [1] (setting [6]), 8.03 µM in assay [2] (setting [7]) and 0.569 µM in assay [3] (setting [8]).
Taken in the same sequence, the figures for `C[C@H](NP(=O)(OC[C@@]1(C#N)O[C@@H](c2ccc3c(N)ncnn23)[C@H](O)[C@@H]1O)Oc1ccccc1)C(=O)OCC1(C)CC1` (stereo partly drawn) [Example 257, (1-methylcyclopropyl)methyl ((((2R,3S,4R,5S)-5-(4-aminopyrrolo[2,1-f][1,2,4]triazin-7-yl)-2-cyano-3,4-dihydroxytetrahydrofuran-2-yl)methoxy)(phenoxy)phosphoryl)-L-alaninate] were 0.029 µM, 5.48 µM and 2.21 µM.
In the case of `C[C@H](NP(=O)(OC[C@@]1(C#N)O[C@@H](c2ccc3c(N)ncnn23)[C@H](O)[C@@H]1O)Oc1ccccc1)C(=O)OCc1ccccc1` (stereo partly drawn) [Example 37, benzyl ((((2R,3S,4R,5S)-5-(4-aminopyrrolo[2,1-f][1,2,4]triazin-7-yl)-2-cyano-3,4-dihydroxytetrahydrofuran-2-yl)methoxy) (phenoxy)phosphoryl)-L-alaninate], the EC50 in assay [1] (setting [6]) came out at 0.136 µM; in assay [4] (setting [9]), 0.129 µM; in assay [5] (setting [10]) it was 0.329 µM; in assay [2] (setting [7]) it was 6.7 µM; in assay [3] (setting [8]), 1.51 µM.
As to `C[C@H](N[P@](=O)(OC[C@@]1(C#N)O[C@@H](c2ccc3c(N)ncnn23)[C@H](O)[C@@H]1O)Oc1ccccc1)C(=O)OCC1CCC1` [Example 120], the EC50 in assay [1] worked out at 0.101 µM; in assay [4] it was 0.104 µM; in assay [5] (setting [11]), 0.295 µM; in assay [2] (Huh-7 replicon cells, 48 hours), 7.46 µM; in assay [3] (48 hours), 0.798 µM.
Take `CC(NP(=O)(OCC1(C#N)OC(c2ccc3c(N)ncnn23)C(O)C1O)Oc1ccccc1)C(=O)OCC1CCC(C(F)(F)F)CC1` (single isomer, unassigned) [Example 28]: the EC50 in assay [1] came out at 0.238 µM; in assay [4], 0.053 µM; in assay [5] (setting [11]) it was 0.59 µM; in assay [2] (Huh-7 replicon cells, 48 hours) it was 29.6 µM; in assay [3] (48 hours), 2.16 µM.
As to `C[C@H](NP(=O)(OC[C@@]1(C#N)O[C@@H](c2ccc3c(N)ncnn23)[C@H](O)[C@@H]1O)Oc1ccccc1)C(=O)OCC1CC1` (single isomer, unassigned) [Example 9], the EC50 in assay [1] is 1.01 µM; in assay [4] it was 0.097 µM; in assay [5] (setting [11]), 0.324 µM; in assay [2] (Huh-7 replicon cells, 48 hours), greater than 50 µM; in assay [3] (48 hours), 1.46 µM.
Take `C[C@H](NP(=O)(OC[C@@]1(C#N)O[C@@H](c2ccc3c(N)ncnn23)[C@H](O)[C@@H]1O)Oc1ccccc1)C(=O)OC1CCCCCC1` (single isomer, unassigned) [Example 135]: the figures for the EC50 in assay [1], in assay [4] (setting [9]) and in assay [3] (setting [8]) were 0.233 µM, 0.066 µM and 1.39 µM, respectively.
Turning to `C[C@H](NP(=O)(OC[C@@]1(C#N)O[C@@H](c2ccc3c(N)ncnn23)[C@H](O)[C@@H]1O)Oc1ccccc1)C(=O)OCC1CC1` (single isomer, unassigned) [Example 10], the EC50 in assay [1] came to 0.191 µM; in assay [4] it was 0.421 µM; in assay [5] (setting [11]) it was 0.583 µM; in assay [2] (Huh-7 replicon cells, 48 hours), 17.9 µM; in assay [3] (48 hours) it was 2.79 µM.
Regarding `CCC(CC)COC(=O)[C@@H](C)NP(=O)(OC[C@@]1(C#N)O[C@@H](c2ccc3c(N)ncnn23)[C@H](O)[C@@H]1O)Oc1ccccc1` (single isomer, unassigned) [Example 84], the EC50 in assay [1] was 8.07 µM; in assay [4], 1.13 µM; in assay [5] (setting [11]), 19.9 µM; in assay [2] (Huh-7 replicon cells, 48 hours) it was greater than 50 µM.
With `COCCOP(=O)(N[C@@H](C)C(=O)OC(C)C)OC[C@@]1(C#N)O[C@@H](c2ccc3c(N)ncnn23)[C@H](O)[C@@H]1O` (stereo partly drawn) [Example 41, isopropyl ((((2R,3S,4R,5S)-5-(4-aminopyrrolo[2,1-f][1,2,4]triazin-7-yl)-2-cyano-3,4-dihydroxytetrahydrofuran-2-yl)methoxy)(2-methoxyethoxy)phosphoryl)-L-alaninate], the EC50 in assay [1] (setting [12]) is greater than 50 µM; in assay [4] (setting [12]), no less than 5 µM; in assay [5] (setting [11]), greater than 50 µM; in assay [2] (setting [8]) it was greater than 50 µM.
For the molecule `CC(C)[C@H](NP(=O)(OC[C@@]1(C#N)O[C@@H](c2ccc3c(N)ncnn23)[C@H](O)[C@@H]1O)Oc1ccccc1)C(=O)OC1CCCCC1` (stereo partly drawn) [Example 98, cyclohexyl ((((2R,3S,4R,5S)-5-(4-aminopyrrolo[2,1-f][1,2,4]triazin-7-yl)-2-cyano-3,4-dihydroxytetrahydrofuran-2-yl)methoxy)(phenoxy)phosphoryl)-L-valinate], the EC50 in assay [1] (setting [6]) was greater than 50 µM; in assay [4] (setting [9]) it was greater than 5 µM; in assay [5] (setting [10]), greater than 50 µM; in assay [2] (setting [7]), greater than 50 µM.

For orientation: EC50 means the midpoint of the concentration-response curve.
